We go through 2 molecules from PMC4117768, “Conjugation with polyamines enhances the antibacterial and anticancer activity of chloramphenicol” (Nucleic Acids Research, 2014).

Test [1] has as its system U937 (histiocytic lymphoma) cells. In words: Toxicity assay in leukemic cell line (cell counting). The class given is cell-based, human. Conditions: increasing concentrations. On the procedure:
(§1) Human leukemic cell lines, HS-Sultan (Burkitt's lymphoma) (European Collection of Cell Cultures, Salisbury, UK), Jurkat (T-cell acute lymphoblastic leukemia) and U937 (histiocytic lymphoma) (American Type Culture Collection, Manassas, USA), were adjusted to 1 × 10^9 cells/l in RPMI-1640 medium containing 1% Penicillin/Streptomycin and 10% fetal bovine serum and grown in triplicate in the presence or absence of CAM or PA–CAM conjugates for 4 days at 37°C, under a humidified 5% CO2 atmosphere. The medium was changed after 2 days of exposure; CAM or PA-CAM addition was repeated after medium change to keep the appropriate drug concentration. Aliquots were collected daily and counted in a CELL-DYN 3700 Hematology Analyzer. For cell necrosis and apoptosis assays, samples (10^6 cells) were collected daily and determined using the Annexin V-PE Apoptosis Detection Kit I (BD Pharmingen) for flow cytometry ([29]), as described by the manufacturer. Flow cytometry data were analyzed using the FlowJo flow cytometry analysis software. Necrotic and apoptotic cells were expressed as a percentage of total cells.
Figure S2. Toxicity assays in leukemic cell lines. […] Aliquots were collected daily and counted in a CELL-DYN 3700 Hematology Analyzer.

Test [2] has as its system Jurkat (T-cell acute lymphoblastic leukemia) cells. The test can be described thus: Toxicity assay in leukemic cell line (cell counting, Annexin V flow cytometry). The class given is cell-based, human. To be noted: for sensitivity of cells / inhibition of cell proliferation (cell counting): increasing concentrations. How it is done:
as §1
(§2) Figure S2. Toxicity assays in leukemic cell lines. Human leukemic cell lines, HS-Sultan, Jurkat, and U937 were adjusted to 1×10^9 cells/l in RPMI-1640 medium containing 1% Penicillin/Streptomycin and 10% fetal bovine serum and grown in triplicate in the presence or absence of CAM or compound 4 at the indicated concentrations for 5 days at 37°C, under a humidified 5% CO2 atmosphere. Aliquots were collected daily and counted in a CELL-DYN 3700 Hematology Analyzer.
Figure S4. Toxicity assays in Jurkat cells. Jurkat cells were adjusted to 1×10^9 cells/l in RPMI-1640 medium containing 1% Penicillin/Streptomycin and 10% fetal bovine serum and grown in triplicate in the presence or absence of CAM or compound 4 at the indicated concentrations for 4 days at 37°C, under a humidified 5% CO2 atmosphere. Cell necrosis and apoptosis assays were performed as described in Figure S3. Necrotic and apoptotic cells were expressed as a percentage of total cells.

The test system of test [3] is central loop of Domain V of 23S rRNA, E. coli ribosomes. In words: Time-resolved footprinting of PA–CAM conjugates bound to ribosomes (DMS, kethoxal, CMCT probing, primer extension). The class given is binding. Conditions: conjugate at 50 × Ki, 25°C, ratio to control lane R. On the procedure: Complexes RI and R*I were then probed at 37°C for 10 min with DMS, kethoxal or CMCT, as described previously ([30]). The modified sites in 23S rRNA were then analyzed by primer extension with reverse transcriptase, according to Moazed et al. ([30]). […] Extension products were run on 6% polyacrylamide/7M urea gels. Identification of the modified nucleotides, quantitative scanning of the gels and normalization of the band intensities were made as previously described ([4]). The values indicated in Table 2 denote the ratio between the normalized intensity of a band of interest and the normalized intensity of the corresponding band in the control lane (ribosomes non-treated with drugs).

The subject of test [4] is HS-Sultan (Burkitt's lymphoma) cells. In words: Toxicity assay in leukemic cell line (cell counting, Annexin V flow cytometry). The class given is cell-based, human. Conditions: for induction of apoptosis (flow cytometry) / induction of necrosis (flow cytometry): 60 μM; for sensitivity of cells / inhibition of cell proliferation (cell counting): increasing concentrations. How it is done:
as §1, §2
Figure S3. Toxicity assays in HS-Sultan cells. HS-Sultan cells were adjusted to 1×10^9 cells/l in RPMI-1640 medium containing 1% Penicillin/Streptomycin and 10% fetal bovine serum and grown in triplicate in the presence or absence of CAM or compound 4 at the indicated concentrations for 4 days at 37°C, under a humidified 5% CO2 atmosphere. For cell necrosis and apoptosis assays, samples (10^6 cells) were collected daily and determined using the Annexin V-PE Apoptosis Detection Kit I for flow cytometry. Non-viable and necrotic cells were expressed as a percentage of total cells.

For test [5], the system named is complex C (poly(U)-programmed ribosomes from E. coli bearing Ac[3H]Phe-tRNA at the P-site), peptidyl transferase. The test can be described thus: Inhibition of AcPhe-puromycin synthesis (puromycin reaction, peptide bond formation). The class given is biochemical. Conditions: for Ki: 25°C, buffer A. On the procedure:
Isolation of 70S ribosomes from E. coli K12 cells and preparation of Ac[^3H]Phe-tRNA^Phe charged to 80% were performed, as described previously ([23]). The post-translocation complex of poly(U)-programmed ribosomes (complex C), bearing tRNA^Phe at the E-site and Ac[^3H]Phe-tRNA at the P-site was prepared in buffer A (100 mM Tris-HCl pH 7.2, 6 mM (CH3COO)2Mg, 100 mM NH4Cl and 6 mM 2-mercaptoethanol). The percentage of active ribosomes in AcPhe-tRNA binding was 72%. This ribosomal population was more than 90% reactive toward puromycin.
The reaction between complex C and excess puromycin (S), a pseudo-substrate which binds to the ribosomal A-site, was performed at 25°C in buffer A and analyzed as described in detail elsewhere ([11]). Briefly, since the reaction followed first-order kinetics, the first-order rate constant kobs at each concentration of puromycin was determined by fitting the corrected x-values into Equation ([1]), (1) where x is the product Ac[^3H]Phe-puromycin expressed as the percentage of complex C radioactivity added in the reaction mixture and t the time of the reaction. kobs is related to the puromycin concentration, [S], by the relationship, (2) where kcat is the catalytic rate constant of PTase and KS the affinity constant of puromycin for complex C.
In the presence of CAM–polyamine conjugates, biphasic logarithmic time plots were obtained. The slope of the straight line through the origin was taken as the value of the apparent rate constant, kobs(early), at the early phase of the reaction, while the slope of the second straight line was taken as the value of the rate constant, kobs(late), at the late phase of the reaction.

The test system is the same in test [6]. Further details: method as in PMID 12930958. Conditions: cited from earlier work.

The structures appear in SMILES notation. Where “and” joins values, the source holds several entries; their conditions need not be identical. Equal entries are not always repeated. Entries after “also recorded” stand apart in the source; their conditions may differ. Where two headings read alike, the source gives them in different places. Marks after values point to notes of the source that are not given here.

For `NCCCN(CCCCN(Cc1ccccc1)Cc1ccccc1)C(=O)CCC(=O)N[C@H](CO)[C@H](O)c1ccc([N+](=O)[O-])cc1` [Compound 4], in test [1], the “sensitivity of cells (cell counting)” value was “insensitive”. In test [2] (60 μM), the “induction of necrosis (flow cytometry)” value is reported as “induced necrosis”. The “sensitivity of cells / inhibition of cell proliferation (cell counting)” value in test [2] is recorded as “sensitive; also recorded: more effective than CAM”. Further, in test [3] (R*I binding state (3 min)), the “Relative reactivity of nucleoside A2058” value was 1.25 ± 0.09^b,c, the “Relative reactivity of nucleoside A2059” value was 0.60 ± 0.03^b,c, the “Relative reactivity of nucleoside A2062” value is 0.52 ± 0.02^b,c and the “Relative reactivity of nucleoside A2451” value is 0.53 ± 0.05^b. In test [3] (R*I binding state (3 min)), the “Relative reactivity of nucleoside A2602” value is 0.88 ± 0.08, the “Relative reactivity of nucleoside G2505” value is on record as 0.35 ± 0.02^b,c, the “Relative reactivity of nucleoside U2506” value is 0.65 ± 0.04^b and the “Relative reactivity of nucleoside U2585” value was 0.45 ± 0.02^b,c. In addition, the “Relative reactivity of nucleoside U2609” value in test [3] (R*I binding state (3 min)) was determined as 1.00 ± 0.07. Moreover, in test [3] (RI binding state (2 s)), the “Relative reactivity of nucleoside A2058” value was determined as 1.00 ± 0.05, the “Relative reactivity of nucleoside A2059” value is on record as 1.00 ± 0.06, the “Relative reactivity of nucleoside A2062” value was 1.00 ± 0.05 and the “Relative reactivity of nucleoside A2451” value is recorded as 0.48 ± 0.02^b. Also, in test [3] (RI binding state (2 s)), the “Relative reactivity of nucleoside A2602” value is reported as 1.00 ± 0.10, the “Relative reactivity of nucleoside G2505” value is recorded as 0.65 ± 0.05^b, the “Relative reactivity of nucleoside U2506” value is recorded as 0.70 ± 0.05^b and the “Relative reactivity of nucleoside U2609” value turned out to be 1.00 ± 0.09. Further, in test [4], the “induction of apoptosis (flow cytometry)” value was “apoptosis to HS-Sultan cells”, the “induction of necrosis (flow cytometry)” value is listed as “induced necrosis” and the “sensitivity of cells / inhibition of cell proliferation (cell counting)” value is recorded as “sensitive; also recorded: more effective than CAM”. The Ki in test [5] (early phase of the reaction (encounter complex CI)) is 975 nM and 980 nM. In test [5] (late phase of the reaction (complex C*I)), this molecule yielded an inhibition constant Ki of 280 ± 30 nM. Besides, the “potency relative to CAM, based on Kik7/(k6 + k7)” value in test [5] (overall two-step inhibition of the puromycin reaction) is 3 fold.
For the molecule `O=C(N[C@H](CO)[C@H](O)c1ccc([N+](=O)[O-])cc1)C(Cl)Cl` [CAM, Chloramphenicol], the “induction of apoptosis (flow cytometry)” value in test [2] (60 μM) and in test [4] was “failed to induce apoptosis” throughout. Further, the “induction of necrosis (flow cytometry)” value is on record as “failed to induce necrosis/apoptosis” in test [2] (60 μM) and “induced necrosis” in test [4]. Besides, the “sensitivity of cells / inhibition of cell proliferation (cell counting)” value in test [2] and in test [4] was “sensitive” each time. Moreover, the off-rate constant (koff) in test [6] is 0.0165 ± 0.00067 s⁻¹. Besides, the inhibitory constant (Ki) in test [6] (early phase) is 3100 ± 300 nM; in test [6] (late phase) it was 880 ± 70 nM.
